Results: patent publication US7018618B2, “Stable pharmaceutical solution formulations for pressurized metered dose inhalers” (Chiesi Farmaceutici S.p.A., priority 2000, dated 2006)

Legend:
Assay type in all cases: physicochemical
[1] = Stability of acidified formoterol/BDP-HFA 134a solutions in cans coated with a fluorocarbon polymer; details: HFA 134a/12% ethanol/0.4% isopropyl myristate, 3.25 μl 1.0 M HCl
Text: (§1) Each value is expressed as percent nominal drug concentration.

[2] = Stability of acidified TA 2005-HFA 134a solutions in cans coated with a fluorocarbon polymer; details: for stability (in words): almost three months at 50° C.
Text: as §1

[3] = Effect of hydrochloric acid on solution pH′ (acidity function) in model vehicle HFA 43-10MEE (Vertrel XF); details: titrated with a strong acid in model vehicle HFA 43-10MEE (Vertrel XF)
Experimental: The meter reading represents an apparent pH or acidity function (pH′).
(a) 1.0 M hydrochloric acid was added incrementally to 50 mL of HFA 43-10MEE (Vertrel XF) containing 20% w/w ethanol and pH′ measured after each aliquot of acid.

[4] = Stability of acidified TA 2005-HFA 134a solutions in cans coated with a fluorocarbon polymer

SMILES	percent nominal drug concentration ([1]; 4° C., 64 days inverted)	percent nominal drug concentration ([1]; 4° C., 123 days inverted)	percent nominal drug concentration ([1]; Initial)	percent nominal drug concentration ([2]; 1.0 μl 0.08 M HCl per can (apparent pH about 4.8), 50° C., 22 days upright)	percent nominal drug concentration ([2]; 1.0 μl 0.08 M HCl per can (apparent pH about 4.8), 50° C., 83 days upright)	percent nominal drug concentration ([2]; 1.0 μl 0.08 M HCl per can (apparent pH about 4.8), Initial, HFA 134a/12% ethanol/1.0% isopropyl myristate, coated cans)	percent nominal drug concentration ([2]; 1.4 μl 0.08 M HCl per can (apparent pH about 3.2), 50° C., 22 days upright)	percent nominal drug concentration ([2]; 1.4 μl 0.08 M HCl per can (apparent pH about 3.2), 50° C., 83 days upright)	percent nominal drug concentration ([2]; 1.4 μl 0.08 M HCl per can (apparent pH about 3.2), Initial)	percent nominal drug concentration ([2]; 1.8 μl 0.08 M HCl per can (apparent pH about 2.9), 50° C., 22 days upright)	percent nominal drug concentration ([2]; 1.8 μl 0.08 M HCl per can (apparent pH about 2.9), 50° C., 83 days upright)	percent nominal drug concentration ([2]; 1.8 μl 0.08 M HCl per can (apparent pH about 2.9), Initial)	stability (in words) ([2]; apparent pH between 3.0 and 5.0, stable = much less than 10% loss of drug)	stability (in words) ([2]; apparent pH of less than 3)	pH′ down to which the titration profile is shallow, thereafter the acidity function drops abruptly [3]	apparent pH ([4]; 1.0 μl 0.08 M hydrochloric acid per can, 3.5 μg/50 μl in HFA 134a/12% ethanol/1.0% isopropyl myristate)	apparent pH ([4]; 1.4 μl 0.08 M hydrochloric acid per can)	apparent pH ([4]; 1.8 μl 0.08 M hydrochloric acid per can)
CCC(=O)OCC(=O)[C@@]1(OC(=O)CC)[C@@H](C)C[C@H]2[C@@H]3CCC4=CC(=O)C=C[C@]4(C)[C@@]3(Cl)[C@@H](O)C[C@@]21C [BDP, beclometasone dipropionate]	100.10 percent nominal	102.6 percent nominal	99.4 percent nominal															
COc1ccc(C[C@@H](C)NC[C@H](O)c2ccc(O)c3[nH]c(=O)ccc23)cc1 [TA 2005, 8-hydroxy-5-[(1R)-1-hydroxy-2-[[(1R)-2-(4-methoxyphenyl)-1-methylethyl]amino]ethyl]-2(1H)-quinolinone]				98.3 percent nominal	99.4 percent nominal	100.0 percent nominal	98.2 percent nominal	98.8 percent nominal	100.0 percent nominal	90.2 percent nominal	88.1 percent nominal	100.0 percent nominal	stable	not	~5.0	about 4.8	~3.2	~2.9
